Measurements taken from patent publication US20240082212A1, “USE OF MDMA FOR TREATMENT OF STRESS-RELATED DISORDERS” (priority 2022, published 2024).

Tested on: cortical neurons
Test: Neurite outgrowth in embryonic rat cortical neuron cultures
Assay type: cell-based
Details: any tested concentration (0.001 to 10000 nM), 3 days, vs vehicle
Source text: Female Wistar rats of 17 days gestation were killed by cervical dislocation and the fetuses (typically 6 to 8 in number) were removed from the uteri. Fetal brains were placed in ice-cold medium of Leibovitz (L15, Gibco, France). Cortex was dissected and meninges were carefully removed. The cortical neurons were dissociated by trypsinization (trypsin-EDTA, Gibco) in the presence of DNAse I (Roche, France). The reaction was stopped by addition of Dulbecco's Modified Eagle Medium (DMEM; Gibco) with 10% of fetal bovine serum (FBS; Gibco). The suspension was triturated with a 10-ml pipette and a 21-gauge needle syringe and centrifuged. The pellet of dissociated cells was resuspended in a medium consisting of Neurobasal (Gibco) supplemented with 2% B27 supplement (Gibco), 0.5 mM L-Glutamine (Gibco), and an antibiotic-antimycotic mixture. Viable cells were counted in a Neubauer cytometer and cells were seeded in 96-well plates (Costar) precoated with poly-L-lysine at 10,000 cells/well. […] Stock solutions were prepared in sterile water at 10 mM and stored at −20° C. until used. Further dilutions were prepared in culture in the medium on the day of the treatment. 0.1% Sterile water was present in all tested conditions.
The experimental protocol was performed in two independent cultures (i.e., from two different pregnant rats). For each culture, each condition was tested in sextuplet (6 wells per condition per culture for a total of 12 wells per condition). […] After three days of plating and compound treatment (Day 3), cultures were fixed with paraformaldehyde in phosphate buffered saline at 4° C. (PBS, 4%, Sigma). All subsequent steps were performed at room temperature. Cells were successively permeabilized for 30 minutes using 0.1% triton, saturated with PBS containing 3% bovine serum albumin (BSA) and incubated for 1 hour with anti-beta III tubulin antibody (T5168, Sigma). […] Finally, nuclei were stained with 4′-6-diamidino-2-phenylindole (DAPI). After rinsing the cells with PBS, the plate was imaged and neurite networks were examined and analyzed using a High-Content Screening platform (CellInsight CXS, Thermo Scientific) with integrated Photometrics high-resolution fluorescent camera, Olympus objective (10×) and HCS Studio Cell Analysis Software. Approximately 2,000 neurons per well were analyzed using a validated cortex neuron outgrowth algorithm that utilizes parameters optimized for analysis of embryonic rat cortical neuron cultures. The HCS Studio Cell Analysis Software output included values for neurite total count (#), neurite total length (μm) and total number of branch points (#) for each of the 6 wells per culture. The evaluation of neurite outgrowth was performed using the average number of neurites per neuron (#), the average of total neurite length per neuron (μm) and the average number of branch points per neuron (#) across 12 wells. Data also was transformed to percent (%) of the average vehicle control value. Results were expressed as mean (±s.e.m.) of the transformed (% of vehicle control) data. Statistical analyses were performed on transformed percent of the average vehicle control data for each measure for each test article using one-way analysis of variance (Anova, StatView). Where applicable, Dunnett's test was used for multiple pairwise comparisons to the negative control (vehicle) condition. […] The level of significance was set at p value less than or equal to 0.05 (*p<0.05).

C[C@H](N)Cc1ccc2c(c1)OCO2 [S-MDA, S(+)-MDA]
did not significantly alter: neurite number (#) | neurite total length (μm) | total number of branch points (#)
